A short description of data set [1]: Selectivity index, ratio of CC50 for African green monkey Vero cells to MIC for antifungal activity against Cryptococcus neoformans NR41298. It is filed as toxicity. The following applies: read-out: Selectivity Index.
A short description of data set [2]: Selectivity index, ratio of CC50 for African green monkey Vero cells to MIC for antifungal activity against Candida krusei CAB 396420. In kind it is toxicity. The following applies: read-out: Selectivity Index.
A further data set concerns Candida parapsilosis. The data set is described as follows: Antifungal activity against Candida parapsilosis CAB 502638 assessed as reduction in fungal growth incubated for 24 hrs by CLSI based broth microdilution method. The following applies: Lodderomyces parapsilosis. In kind it is functional. (In general: Dilution methods test growth across graded concentrations, often in twofold steps.)

For data set [3], the system named is Candida albicans. The data set is described as follows: Fungistatic activity against Candida albicans SS5314 at 5 to 10x MIC measured for 36 hrs by time kill assay. In kind it is functional, organism-based.
A short description of data set [4]: Selectivity index, ratio of CC50 for African green monkey Vero cells to MIC for antifungal activity against Candida krusei ATCC 34135. To be noted: read-out: Selectivity Index. It is filed as toxicity.
Another data set relates to Cryptococcus neoformans. Kind of data set: Antifungal activity against Cryptococcus neoformans NR48770 assessed as reduction in fungal growth incubated for 48 hrs by CLSI based broth microdilution method. It is filed as functional.
For a further data set, the system named is Aspergillus fumigatus. The data set is described as follows: Antifungal activity against Aspergillus fumigatus NR 35303 assessed as reduction in fungal growth incubated for 24 hrs by CLSI based broth microdilution method. It is filed as functional.
Data set [5] has as its system Candida albicans. The data set is described as follows: Antifungal activity against Candida albicans ATCC 10231 assessed as reduction in fungal growth incubated for 24 hrs by CLSI based broth microdilution method. It is filed as functional.
For another data set, the system named is Escherichia coli. The data set is described as follows: Antibacterial activity against Escherichia coli JW55031 harboring tolC mutation assessed as reduction in bacterial growth by CLSI based broth microdilution method. It is filed as functional.
A short description of data set [6]: Selectivity index, ratio of maximum non-toxic concentration for human Caco-2 cells to MIC for antifungal activity against Cryptococcus gattii NR43209. In kind it is toxicity. To be noted: read-out: Selectivity Index.
Data set [7] can be described thus: Selectivity index, ratio of CC50 for African green monkey Vero cells to MIC for antifungal activity against Candida parapsilosis CAB 502638. It is filed as toxicity. The following applies: read-out: Selectivity Index.
The nature of data set [8]: Selectivity index, ratio of CC50 for African green monkey Vero cells to MIC for antifungal activity against fluconazole-resistant Candida albicans NR29448. It is filed as toxicity. The following applies: read-out: Selectivity Index.
Data set [9] can be described thus: Selectivity index, ratio of maximum non-toxic concentration for human Caco-2 cells to MIC for antifungal activity against Candida parapsilosis ATCC 22019. The following applies: read-out: Selectivity Index. In kind it is toxicity.
The nature of data set [10]: Selectivity index, ratio of maximum non-toxic concentration for human Caco-2 cells to MIC for antifungal activity against Aspergillus fumigatus NR 35304. In kind it is toxicity. To be noted: read-out: Selectivity Index.
In a further data set the test system is [Candida] auris. The data set is described as follows: Antifungal activity against fluconazole-resistant Candida auris 381 assessed as reduction in fungal growth incubated for 24 hrs by CLSI based broth microdilution method. The following applies: Candidozyma auris. In kind it is functional.
A short description of data set [11]: Selectivity index, ratio of CC50 for African green monkey Vero cells to MIC for antifungal activity against Cryptococcus neoformans NR41300. It is filed as toxicity. To be noted: read-out: Selectivity Index.
A short description of data set [12]: Selectivity index, ratio of maximum non-toxic concentration for human Caco-2 cells to MIC for antifungal activity against Candida glabrata ATCC MYA-2950. In kind it is toxicity. To be noted: read-out: Selectivity Index.

In brackets after ≈: the same amount, converted by molar mass. Activity calls are given as the source filed them. The calls are words filed in the database; no cut-off is given here.

What is called MIC is the lowest concentration that inhibits growth of the organism. Regarding `Cc1nc(-c2ccc(C(C)(C)C)cc2)sc1-c1nnc(N[C@@H]2CCCC[C@@H]2N)o1` (relative stereo), the selectivity ratio in data set [1], in data set [2], in data set [4], in [6], in data set [7] and in data set [8] was no more than 64 in each case. The selectivity ratio in data set [9], in [10], in [11] and in data set [12] was no more than 64 in each case. Moreover, the MIC in the data set on Candida parapsilosis was 1 µg/mL (≈ 2.43 µM); with Cryptococcus neoformans, 1 µg/mL (≈ 2.43 µM); in the data set on Aspergillus fumigatus, 8 µg/mL (≈ 19.4 µM); with Candida albicans [5], 8 µg/mL (≈ 19.4 µM); in the data set with Escherichia coli, greater than 64 µg/mL; in data set [Candida] auris, 4 µg/mL (≈ 9.72 µM). In addition, in the data set on Candida albicans [3], the result was Active.

For the origin of these results see ChEMBL document CHEMBL4680171, “Oxadiazolylthiazoles as novel and selective antifungal agents” (Eur J Med Chem, 2020).
